{"source": "patent US11999728B2", "about": "“Estrogen receptor modulators” (Recurium IP Holdings, LLC, priority 2020, dated 2024)", "note": "pIC50: −log10 of the molar value.", "data": [{"test_system": "MCF7", "test": "Breast Cancer Cell Proliferation Assay (MCF-7), Cell Titer-Glo", "type": "cell-based", "details": "Homo sapiens, MCF7, 120 h, MCF7 cells, 5 days of compound exposure", "method": "Breast Cancer Cell Proliferation Assay (MCF-7)\nMCF7 was expanded and maintained in the medium (Phenol red free DMEM/F12 (Hyclone SH30272.01) NEAA (Gibco11140-050) Na-pyruvate (Gibco 11360-070) and Re-stripped Charcoal stripped FBS (Gemini 100-119)). The cells were adjusted to a concentration of 3,000 cells per mL in the above media, and the cells were incubated (37° C., 5% CO2). The following day a 10-point, serial dilution of compounds was added to the cells at a final concentration ranging from 10-0.000005 μM for test compounds (17β-estradiol was used as a control). Additional cells were plated in 30 wells to serve as the day 1 (pretreatment) comparison. After 5 days of compound exposure, Cell Titer-Glo reagent was added to the cells and the relative luminescence units (RLUs) of each well was determined. Cell Titer-Glo was also added to 32 μL of medium without cells to obtain a background value. The plates were allowed to incubate at room temperature for 10 minutes to stabilize luminescent signal and the luminescence signal was recorded with EnSpire. The relative increase in cell number of each sample is determined as follows: (RLU sample-RLU background/RLU estrogen only treated cells-RLU background)×100=% inhibition.", "values": [{"smiles": "C[C@@H]1Cc2c([nH]c3ccccc23)[C@@H](c2c(F)cc(OCCN3CCCC3)cc2F)N1C12CC(C1)C2", "note": "[Compound 26, (1R,3R)-2-(bicyclo[1.1.1]pentan-1-yl)-1-(2,6-difluoro-4-(2-(pyrrolidin-1-yl)ethoxy)phenyl)-3-methyl-2,3,4,9-tetrahydro-1H-pyrido[3,4-b]indole]", "pIC50": "≤ 6.60"}, {"smiles": "C[C@@H]1Cc2c([nH]c3ccccc23)[C@@H](c2ccc(NCCN3CCC(F)C3)nc2)N1C12CC(C1)C2", "note": "(stereo partly drawn) [Compound 28, 5-((1R,3R)-2-(bicyclo[1.1.1]pentan-1-yl)-3-methyl-2,3,4,9-tetrahydro-1H-pyrido[3,4-b]indol-1-yl)-N-(2-(3-fluoropyrrolidin-1-yl)ethyl)pyridin-2-amine]", "pIC50": "≤ 6.60"}, {"smiles": "C[C@@H]1Cc2c([nH]c3ccccc23)[C@@H](c2ccc(NCCN3CCC(CF)C3)nc2)N1C12CC(C1)C2", "note": "(stereo partly drawn) [Compound 29, 5-((1R,3R)-2-(bicyclo[1.1.1]pentan-1-yl)-3-methyl-2,3,4,9-tetrahydro-1H-pyrido[3,4-b]indol-1-yl)-N-(2-(3-(fluoromethyl)pyrrolidin-1-yl)ethyl)pyridin-2-amine]", "pIC50": "≤ 6.60"}, {"smiles": "CCCN1CC(Nc2ccc([C@@H]3c4[nH]c5ccccc5c4C[C@@H](C)N3C34CC(C3)C4)cn2)C1", "note": "[Compound 30, 5-((1R,3R)-2-(bicyclo[1.1.1]pentan-1-yl)-3-methyl-2,3,4,9-tetrahydro-1H-pyrido[3,4-b]indol-1-yl)-N-(1-propylazetidin-3-yl)pyridin-2-amine]", "pIC50": "≤ 6.60"}, {"smiles": "C[C@@H]1Cc2c([nH]c3ccccc23)[C@@H](c2ccc(OC3CN(CCCF)C3)cc2)N1C12CC(C1)C2", "note": "[Compound 38, (1R,3R)-2-(bicyclo[1.1.1]pentan-1-yl)-1-(4-((1-(3-fluoropropyl)azetidin-3-yl)oxy)phenyl)-3-methyl-2,3,4,9-tetrahydro-1H-pyrido[3,4-b]indole]", "pIC50": "≥ 7.60"}, {"smiles": "C[C@@H]1Cc2c([nH]c3ccccc23)[C@@H](c2cnc(NC3CN(CCCF)C3)c(F)c2)N1C12CC(C1)C2", "note": "[Compound 41, 5-((1R,3R)-2-(bicyclo[1.1.1]pentan-1-yl)-3-methyl-2,3,4,9-tetrahydro-1H-pyrido[3,4-b]indol-1-yl)-3-fluoro-N-(1-(3-fluoropropyl)azetidin-3-yl)pyridin-2-amine]", "pIC50": "≤ 6.60"}, {"smiles": "CCCN1CC(Oc2ccc([C@@H]3c4[nH]c5ccccc5c4C[C@@H](C)N3C34CC(C3)C4)cn2)C1", "note": "[Compound 43, (1R,3R)-2-(bicyclo[1.1.1]pentan-1-yl)-3-methyl-1-(6-((1-propylazetidin-3-yl)oxy)pyridin-3-yl)-2,3,4,9-tetrahydro-1H-pyrido[3,4-b]indole]", "pIC50": "6.60 to 7.60"}, {"smiles": "C[C@@H]1Cc2c([nH]c3ccccc23)[C@@H](c2cnc(N[C@H]3CCN(CCCF)C3)cn2)N1C12CC(C1)C2", "note": "[Compound 44, 5-((1S,3R)-2-(bicyclo[1.1.1]pentan-1-yl)-3-methyl-2,3,4,9-tetrahydro-1H-pyrido[3,4-b]indol-1-yl)-N—((S)-1-(3-fluoropropyl)pyrrolidin-3-yl)pyrazin-2-amine]", "pIC50": "≤ 6.60"}, {"smiles": "C[C@@H]1Cc2c([nH]c3ccccc23)[C@@H](c2ccc(OC3CN(CCO)C3)cc2)N1C12CC(C1)C2", "note": "[Compound 46, 2-(3-(4-((1R,3R)-2-(bicyclo[1.1.1]pentan-1-yl)-3-methyl-2,3,4,9-tetrahydro-1H-pyrido[3,4-b]indol-1-yl)phenoxy)azetidin-1-yl)ethan-1-ol]", "pIC50": "≤ 6.60"}, {"smiles": "C[C@@H]1Cc2c([nH]c3ccccc23)[C@@H](c2ccc(OC3CN(C4CC4)C3)cc2)N1C12CC(C1)C2", "note": "[Compound 47, (1R,3R)-2-(bicyclo[1.1.1]pentan-1-yl)-1-(4-((1-cyclopropylazetidin-3-yl)oxy)phenyl)-3-methyl-2,3,4,9-tetrahydro-1H-pyrido[3,4-b]indole]", "pIC50": "≥ 7.60"}, {"smiles": "C#CCN1CC(Nc2ccc([C@@H]3c4[nH]c5ccccc5c4C[C@@H](C)N3C34CC(C3)C4)nc2)C1", "note": "[Compound 48, 6-((1S,3R)-2-(bicyclo[1.1.1]pentan-1-yl)-3-methyl-2,3,4,9-tetrahydro-1H-pyrido[3,4-b]indol-1-yl)-N-(1-(prop-2-yn-1-yl)azetidin-3-yl)pyridin-3-amine]", "pIC50": "≥ 7.60"}, {"smiles": "C[C@@H]1Cc2c([nH]c3ccccc23)[C@@H](c2ccc(N3CC(NCCCF)C3)cn2)N1C12CC(C1)C2", "note": "[Compound 49, 1-(6-((1S,3R)-2-(bicyclo[1.1.1]pentan-1-yl)-3-methyl-2,3,4,9-tetrahydro-1H-pyrido[3,4-b]indol-1-yl)pyridin-3-yl)-N-(3-fluoropropyl)azetidin-3-amine]", "pIC50": "≤ 6.60"}, {"smiles": "CCCN1CC[C@H](Nc2cnc([C@@H]3c4[nH]c5ccccc5c4C[C@@H](C)N3C34CC(C3)C4)cn2)C1", "note": "[Compound 54, 5-((1S,3R)-2-(bicyclo[1.1.1]pentan-1-yl)-3-methyl-2,3,4,9-tetrahydro-1H-pyrido[3,4-b]indol-1-yl)-N—((S)-1-propylpyrrolidin-3-yl)pyrazin-2-amine]", "pIC50": "≥ 7.60"}, {"smiles": "C[C@@H]1Cc2c([nH]c3ccccc23)[C@@H](c2ccc(N[C@H]3CCN(CCCF)C3)cn2)N1C12CC(C1)C2", "note": "[Compound 55, 6-((1S,3R)-2-(bicyclo[1.1.1]pentan-1-yl)-3-methyl-2,3,4,9-tetrahydro-1H-pyrido[3,4-b]indol-1-yl)-N—((S)-1-(3-fluoropropyl)pyrrolidin-3-yl)pyridin-3-amine]", "pIC50": "≤ 6.60"}, {"smiles": "C[C@@H]1Cc2c([nH]c3ccccc23)[C@@H](c2c(F)cc(NC3CN(CCF)C3)cc2F)N1C12CC(C1)C2", "note": "[Compound 56, N-(4-((1R,3R)-2-(bicyclo[1.1.1]pentan-1-yl)-3-methyl-2,3,4,9-tetrahydro-1H-pyrido[3,4-b]indol-1-yl)-3,5-difluorophenyl)-1-(2-fluoroethyl)azetidin-3-amine]", "pIC50": "≥ 7.60"}, {"smiles": "C[C@@H]1Cc2c([nH]c3ccccc23)[C@@H](c2cnc(NC3CN(CCCF)C3)nc2)N1C12CC(C1)C2", "note": "[Compound 57, 5-((1R,3R)-2-(bicyclo[1.1.1]pentan-1-yl)-3-methyl-2,3,4,9-tetrahydro-1H-pyrido[3,4-b]indol-1-yl)-N-(1-(3-fluoropropyl)azetidin-3-yl)pyrimidin-2-amine]", "pIC50": "6.60 to 7.60"}, {"smiles": "C[C@@H]1Cc2c([nH]c3ccccc23)[C@@H](c2ncc(NC3CN(CCCF)C3)cn2)N1C12CC(C1)C2", "note": "[Compound 60, 2-((1S,3R)-2-(bicyclo[1.1.1]pentan-1-yl)-3-methyl-2,3,4,9-tetrahydro-1H-pyrido[3,4-b]indol-1-yl)-N-(1-(3-fluoropropyl)azetidin-3-yl)pyrimidin-5-amine]", "pIC50": "≤ 6.60"}, {"smiles": "C[C@@H]1Cc2c([nH]c3ccccc23)[C@@H](c2ncc(OC3CN(CCCF)C3)cn2)N1C12CC(C1)C2", "note": "[Compound 61, (1S,3R)-2-(bicyclo[1.1.1]pentan-1-yl)-1-(5-((1-(3-fluoropropyl)azetidin-3-yl)oxy)pyrimidin-2-yl)-3-methyl-2,3,4,9-tetrahydro-1H-pyrido[3,4-b]indole]", "pIC50": "≤ 6.60"}, {"smiles": "C=CCN1CC(Nc2ccc([C@@H]3c4[nH]c5ccccc5c4C[C@@H](C)N3C34CC(C3)C4)cc2)C1", "note": "[Compound 64, 1-allyl-N-(4-((1R,3R)-2-(bicyclo[1.1.1]pentan-1-yl)-3-methyl-2,3,4,9-tetrahydro-1H-pyrido[3,4-b]indol-1-yl)phenyl)azetidin-3-amine]", "pIC50": "≥ 7.60"}, {"smiles": "C#CCN1CC(Nc2ccc([C@@H]3c4[nH]c5ccccc5c4C[C@@H](C)N3C34CC(C3)C4)cc2)C1", "note": "[Compound 65, N-(4-((1R,3R)-2-(bicyclo[1.1.1]pentan-1-yl)-3-methyl-2,3,4,9-tetrahydro-1H-pyrido[3,4-b]indol-1-yl)phenyl)-1-(prop-2-yn-1-yl)azetidin-3-amine]", "pIC50": "≥ 7.60"}, {"smiles": "C[C@@H]1Cc2c([nH]c3ccccc23)[C@@H](c2ccc(N[C@@H]3CN(CCCF)C[C@@H]3O)cc2)N1C12CC(C1)C2", "note": "[Compound 78, (3S,4R)-4-((4-((1R,3R)-2-(bicyclo[1.1.1]pentan-1-yl)-3-methyl-2,3,4,9-tetrahydro-1H-pyrido[3,4-b]indol-1-yl)phenyl)amino)-1-(3-fluoropropyl)pyrrolidin-3-ol]", "pIC50": "≥ 7.60"}, {"smiles": "CCCCN1C[C@@H](F)[C@H](Nc2ccc([C@@H]3c4[nH]c5ccccc5c4C[C@@H](C)N3C34CC(C3)C4)cc2)C1", "note": "[Compound 84, (3R,4R)—N-(4-((1R,3R)-2-(bicyclo[1.1.1]pentan-1-yl)-3-methyl-2,3,4,9-tetrahydro-1H-pyrido[3,4-b]indol-1-yl)phenyl)-1-butyl-4-fluoropyrrolidin-3-amine]", "pIC50": "≥ 7.60"}, {"smiles": "CCCN1C[C@@H](F)[C@H](Nc2ccc([C@@H]3c4[nH]c5ccccc5c4C[C@@H](C)N3C34CC(C3)C4)cc2)C1", "note": "[Compound 87, (3R,4R)—N-(4-((1R,3R)-2-(bicyclo[1.1.1]pentan-1-yl)-3-methyl-2,3,4,9-tetrahydro-1H-pyrido[3,4-b]indol-1-yl)phenyl)-4-fluoro-1-propylpyrrolidin-3-amine]", "pIC50": "≥ 7.60"}, {"smiles": "C[C@@H]1Cc2c([nH]c3ccccc23)[C@@H](c2ccc(NC3CN(CC(C)(F)F)C3)cc2)N1C12CC(C1)C2", "note": "[Compound 88, N-(4-((1R,3R)-2-(bicyclo[1.1.1]pentan-1-yl)-3-methyl-2,3,4,9-tetrahydro-1H-pyrido[3,4-b]indol-1-yl)phenyl)-1-(2,2-difluoropropyl)azetidin-3-amine]", "pIC50": "6.60 to 7.60"}, {"smiles": "CCCN1C[C@@H](Nc2ccc([C@@H]3c4[nH]c5ccccc5c4C[C@@H](C)N3C34CC(C3)C4)cc2)C[C@@H]1C", "note": "[Compound 89, (3S,5S)—N-(4-((1R,3R)-2-(bicyclo[1.1.1]pentan-1-yl)-3-methyl-2,3,4,9-tetrahydro-1H-pyrido[3,4-b]indol-1-yl)phenyl)-5-methyl-1-propylpyrrolidin-3-amine]", "pIC50": "6.60 to 7.60"}]}]}
